What was measured:
[1] = target: T1, D3 dopamine receptors (Rattus norvegicus, UniProt P19020); assay: [3H]R(+)-7-OH-DPAT binding assay, rat ventral striatum membranes; conditions: rat brain; for Ki: mean ± SEM of 3-6 determinations; for Selectivity D1-like/D3 / Selectivity D2-like/D3: ratio of Ki values
T1 construct: Rat ventral striatum (nucleus accumbens and olfactory tubercles) was prepared in assay buffer; tissue Pel-Freez, Rogers, Ark; host or cells: rat ventral striatum (nucleus accumbens and olfactory tubercles) membranes
T1 sequence (P19020 whole entry): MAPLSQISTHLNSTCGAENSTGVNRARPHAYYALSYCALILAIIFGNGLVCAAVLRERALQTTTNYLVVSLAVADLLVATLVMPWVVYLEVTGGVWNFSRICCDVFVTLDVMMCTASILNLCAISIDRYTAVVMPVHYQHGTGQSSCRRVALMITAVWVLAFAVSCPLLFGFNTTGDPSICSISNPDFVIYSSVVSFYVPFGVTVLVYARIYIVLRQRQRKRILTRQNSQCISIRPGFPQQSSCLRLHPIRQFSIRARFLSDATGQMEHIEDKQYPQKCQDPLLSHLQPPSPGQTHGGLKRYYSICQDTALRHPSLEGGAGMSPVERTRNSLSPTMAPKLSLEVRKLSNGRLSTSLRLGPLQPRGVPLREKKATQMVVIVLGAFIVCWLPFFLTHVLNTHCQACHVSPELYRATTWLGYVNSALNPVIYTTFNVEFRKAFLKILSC
Description: All the synthesized compounds were determined for the binding affinities at the D3, D1-like and D2-like receptors in membranes prepared from the brains of adult, male Sprague-Dawley rats (Pel-Freez, Rogers, Ark.). All compounds were dissolved in 100% EtOH at a concentration of 5 mM.
[^3H]R(+)-7-OH-DPAT Binding Assays.
[^3H]R-(+)-7-OH-DPAT binding assays for the D3 dopamine receptors were performed as previously described in detail.^(44),(45) Rat ventral striatum (nucleus accumbens and olfactory tubercles) was prepared in assay buffer (50 mM Tris, 1 mM EDTA; pH 7.4 at 23° C.) to yield a final concentration of 10 mg original wet weight (o.w.w.)/ml. […] Nonspecific binding was defined by 1 μM spiperone. Assay tubes were incubated at 23° C. for 90 min. The reaction was terminated by rapid vacuum filtration.

[2] = target: T2, D3 receptor (Rattus norvegicus, UniProt P19020); assay: Induction of yawning behavior in rats; assay type: in vivo; conditions: for Emax: rat, read-out: Increase in yawning relative to maximum effect of pramipexole at 0.1 mg/kg, doses between 0.0032 and 3.2 mg/kg; for Emax / Lowest dose active (significant increase in yawning): rats; for Lowest dose active (significant increase in yawning): s.c., yawns/60 min; for In vivo functional activity at the D3 receptor: yawning assays in rats
T2 construct: evaluated for the effect in the induction of yawning and hypothermia in rats; tissue Harlan; Indianapolis, Ind; host or cells: living male Sprague-Dawley rats
T2 sequence (P19020 whole entry): as above
Description: (§1) Male Sprague-Dawley rats (Harlan; Indianapolis, Ind.) weighing 250-300 g were housed three to a cage for yawning studies, and one to a cage for hypothermia studies, and maintained on a 12-h dark/light cycle with lights on at 7:00 AM in a temperature (21-23° C.) and humidity controlled environment with free access to standard Purina rodent chow and water. […] All drugs were administered subcutaneously (s.c.) in a volume of 1 ml/kg.
Yawning behavior was defined as a prolonged (˜1 sec.), wide opening of the mouth followed by a rapid closure. On the day of testing, rats were transferred from their home cage to a test chamber (48 cm×23 cm×20 cm clear rodent cage with standard cob bedding), and allowed to habituate to the chamber for a period of 30 min prior to a sterile water injection which was administered 30 min prior to the injection of the compound of interest. Yawns were scored for a period of 60 min thereafter. Each compound was assessed in groups of 6 rats, with each rat receiving a single dose of one compound. Food and water were unavailable during test sessions, and all experiments were conducted between the hours of 12:00 PM and 6:00 PM with at least 72 hrs between test sessions to allow for drug washout.
(§2) Dose-response curves for the induction of yawning and hypothermia were determined with 6 rats per group, and results expressed as the mean number of yawns, or change in body temperature 60 min post agonist injection compared to the body temperature 1 min prior to the agonist injection±standard error of the mean (SEM).

[3] = target: T3, D2 receptor (Rattus norvegicus, UniProt P61169); assay: Hypothermia assay (core body temperature) in rats; assay type: in vivo; conditions: 10.0 mg/kg s.c.
T3 construct: evaluated for the effect in the induction of yawning and hypothermia in rats; tissue Harlan; Indianapolis, Ind; host or cells: living male Sprague-Dawley rats
T3 sequence (P61169 whole entry): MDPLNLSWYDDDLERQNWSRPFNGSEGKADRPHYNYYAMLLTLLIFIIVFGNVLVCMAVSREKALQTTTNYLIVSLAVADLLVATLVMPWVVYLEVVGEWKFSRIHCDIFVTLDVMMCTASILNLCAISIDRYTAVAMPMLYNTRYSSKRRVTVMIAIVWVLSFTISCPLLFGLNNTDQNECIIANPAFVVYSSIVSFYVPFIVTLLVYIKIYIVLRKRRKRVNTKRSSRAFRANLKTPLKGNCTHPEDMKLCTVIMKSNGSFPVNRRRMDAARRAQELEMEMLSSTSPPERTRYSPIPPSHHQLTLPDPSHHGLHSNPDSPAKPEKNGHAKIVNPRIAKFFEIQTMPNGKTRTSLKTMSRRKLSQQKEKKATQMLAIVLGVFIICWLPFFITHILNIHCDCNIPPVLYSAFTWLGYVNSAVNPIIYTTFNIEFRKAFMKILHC
Description: as §1
Rats were anesthetized with ketamine/xylazine (100/10 mg/kg; i.p.) and their abdominal area was shaved and cleaned with alternating betadine and alcohol swabs prior to surgical implantation of radio-telemetric probes (E-4000 E-Mitter, Mini-Mitter, Bend, Oreg., USA). […]
On the day of testing, rats were weighed and returned to their home cages, which were placed onto a receiving pad (ER-4000 Receiver, Mini-mitter, Bend, Oreg.) to allow for the collection of core body temperature. Temperature measurements were taken every min with at least 30 min of baseline temperature data recorded prior to the administration of antagonist or vehicle. Agonist or vehicle injections were administered 30 min thereafter, and core body temperature was recorded for a period of at least the next 60 min. […]

[4] = tested on: D3 and D2 receptors; assay: Effect on pramipexole-induced yawning in rats; assay type: in vivo, rat; conditions: 30-min pretreatment; 38/52 […], SB-277011A 32 mg/kg, L-741,626 1.0 mg/kg
Description: as §1
(§3) Observation of yawning behavior began immediately after each injection, and the total number of yawns was recorded for 60 min thereafter.
as §2

[5] = target: T3, D2 receptor; assay: Effect on pramipexole-induced hypothermia in rats; assay type: in vivo; conditions: pretreatment 10.0 mg/kg; pramipexole 1.0 mg/kg
Description: as §1, §3, §2

[6] = Solubility in water; assay type: physicochemical

| SMILES | Ki [1] [nM] | Selectivity D1-like/D3 [1] | Selectivity D2-like/D3 [1] | further results |
| --- | --- | --- | --- | --- |
| CCCN(CCC1CCC(NC(=O)c2ccc(-c3noc(C(C)C)n3)cc2)CC1)C1CCc2nc(N)sc2C1 (single isomer, unassigned) [Compound 35] | 2 ± 0.19 | 5,366 |  |  |
| CCCN(CCC1CCC(NC(=O)c2cccc(-c3noc(CC)n3)c2)CC1)C1CCc2nc(N)sc2C1 (single isomer, unassigned) [Compound 37] | 1.5 | 3,448 | 339 |  |
| CCCN(CCC1CCC(NS(=O)(=O)c2cccc(F)c2)CC1)C1CCc2nc(N)sc2C1 (stereo in doubt) [Compound 43, Trans-N-(4-2-(((s)-2-amino-4,5,6,7-tetrahydrobenzo[d]thiazol-6-yl)(propyl)amino)ethylcyclohexyl)-3-fluorobenzenesulfonamide] | 0.72 |  |  |  |
| CCCN(CCC1CCC(NC(=O)c2ccc(-c3noc(C4CC4)n3)cc2)CC1)C1CCc2nc(N)sc2C1 (single isomer, unassigned) [Compound 36] | 3.5 ± 0.57 | 3,245 |  |  |
| CCCN(CCC1CCC(NS(=O)(=O)c2cccc(Cl)c2)CC1)C1CCc2nc(N)sc2C1 (stereo in doubt) [Compound 45, Trans-N-(4-2-(((s)-2-amino-4,5,6,7-tetrahydrobenzo[d]thiazol-6-yl)(propyl)amino)ethylcyclohexyl)-3-chlorobenzenesulfonamide] | 1.1 ± 0.1 |  |  |  |
| CCCN(CCC1CCC(NS(=O)(=O)c2ccc(OC)cc2)CC1)C1CCc2nc(N)sc2C1 (stereo in doubt) [Compound 44, Trans-N-(4-2-(((s)-2-amino-4,5,6,7-tetrahydrobenzo[d]thiazol-6-yl)(propyl)amino)ethylcyclohexyl)-4-methoxybenzenesulfonamide] | 0.78 | 27,487 | 49 |  |
| CCCN(CCC1CCC(NC(=O)c2cccc(-c3noc(C)n3)c2)CC1)C1CCc2nc(N)sc2C1 (stereo in doubt) [Compound 38, Trans-N-(4-2-(((s)-2-amino-4,5,6,7-tetrahydrobenzo[d]thiazol-6-yl)(propyl)amino)ethylcyclohexyl)-3-(5-methyl-1,2,4-oxadiazol-3-yl)benzamide] | 0.73 |  | 494 | Emax [2]: 25%; Lowest dose active (significant increase in yawning) [2]: 3.2 µg/kg; In vivo functional activity at the D3 receptor [2]: partial agonists at the D3 receptor; Induction of hypothermia [3]: significant effect in induction of hypothermia; Effect on yawning induced by 0.1 mg/kg pramipexole [4]: effectively inhibited; Effect on hypothermic effects of pramipexole [5]: slight, but significant reductions; solubility [6]: > 100 mg/mL |
| CCCN(CCC1CCC(NS(=O)(=O)c2cccnc2Cl)CC1)C1CCc2nc(N)sc2C1 (stereo in doubt) [Compound 52, Trans-N-(4-2-(((s)-2-amino-4,5,6,7-tetrahydrobenzo[d]thiazol-6-yl)(propyl)amino)ethylcyclohexyl)-2-chloropyridine-3-sulfonamide] | 0.38 |  | 451 | Emax [2]: 25%; Lowest dose active (significant increase in yawning) [2]: 3.2 µg/kg; In vivo functional activity at the D3 receptor [2]: partial agonists at the D3 receptor; Induction of hypothermia [3]: significant effect in induction of hypothermia; Effect on yawning induced by 0.1 mg/kg pramipexole [4]: effectively inhibited; Effect on hypothermic effects of pramipexole [5]: slight, but significant reductions |
| OC1(c2ccc(Cl)cc2)CCN(Cc2c[nH]c3ccccc23)CC1 [L-741,626, reference compound] |  |  |  | Effect on yawning at […] pramipexole [4]: reversed the inhibition of yawning; Effect on yawning induced by 0.1 mg/kg pramipexole [4]: failed to alter the induction of yawning |
| CCCN(CCC1CCC(NS(=O)(=O)c2ccc(Cl)nc2)CC1)C1CCc2nc(N)sc2C1 (stereo in doubt) [Compound 51, Trans-N-(4-2-(((s)-2-amino-4,5,6,7-tetrahydrobenzo[d]thiazol-6-yl)(propyl)amino)ethylcyclohexyl)-6-chloropyridine-3-sulfonamide] | 0.63 ± 0.04 | 12,933 |  |  |
| CCCN(CCC1CCC(NC(=O)c2ccc(-c3noc(C)n3)cc2)CC1)C1CCc2nc(N)sc2C1 (stereo in doubt) [Compound 33, Trans-N-(4-2-(((s)-2-amino-4,5,6,7-tetrahydrobenzo[d]thiazol-6-yl)(propyl)amino)ethylcyclohexyl)-4-(5-methyl-1,2,4-oxadiazol-3-yl)benzamide] | 1.3 | 27,041 | 345 |  |
| N#Cc1ccc2c(c1)CCN(CCC1CCC(NC(=O)c3ccnc4ccccc34)CC1)C2 (stereo not drawn) [SB-277011A, reference compound] |  |  |  | Effect on yawning at […] pramipexole [4]: inhibited the induction of yawning; Effect on yawning induced by 0.1 mg/kg pramipexole [4]: inhibited the induction of yawning |
| CCCN(CCC1CCC(NS(=O)(=O)c2ccc(Cl)cc2)CC1)C1CCc2nc(N)sc2C1 (stereo in doubt) [Compound 46, Trans-N-(4-2-(((s)-2-amino-4,5,6,7-tetrahydrobenzo[d]thiazol-6-yl)(propyl)amino)ethylcyclohexyl)-4-chlorobenzenesulfonamide] | 0.95 ± 0.01 | 8,754 | 75 |  |
| CCCN(CCC1CCC(NC(=O)c2ccc(-c3noc(CC)n3)cc2)CC1)C1CCc2nc(N)sc2C1 (stereo in doubt) [Compound 34, Trans-N-(4-2-(((s)-2-amino-4,5,6,7-tetrahydrobenzo[d]thiazol-6-yl)(propyl)amino)ethylcyclohexyl)-4-(5-ethyl-1,2,4-oxadiazol-3-yl)benzamide] | 2.1 ± 0.15 | 8,381 |  |  |
| CCCN(CCC1CCC(NS(=O)(=O)c2cnccc2Cl)CC1)C1CCc2nc(N)sc2C1 (stereo in doubt) [Compound 53, Trans-N-(4-2-(((s)-2-amino-4,5,6,7-tetrahydrobenzo[d]thiazol-6-yl)(propyl)amino)ethylcyclohexyl)-4-chloropyridine-3-sulfonamide] | 0.93 |  |  |  |
| CCCN(CCC1CCC(NS(=O)(=O)c2ccccc2Cl)CC1)C1CCc2nc(N)sc2C1 (stereo in doubt) [Compound 47, Trans-N-(4-2-(((s)-2-amino-4,5,6,7-tetrahydrobenzo[d]thiazol-6-yl)(propyl)amino)ethylcyclohexyl)-2-chlorobenzenesulfonamide] | 0.68 ± 0.06 |  |  |  |

Source: patent US8486981B2, “Selective ligands for the dopamine 3 (D3) receptor and methods of using the same” (The Regents of the University of Michigan, priority 2011, dated 2013)
